The source of these data is US20170280720A1, “ARGININE […] INHIBITORS AND USES THEREOF” (EPIZYME, INC., priority 2014, published 2017).

SMILES strings stand for the structures.

For one assay, the target named is PRMT5 (Homo sapiens, UniProt O14744). Description: PRMT5 IC50 (Table 2; no method described). The following applies: read-out: PRMT5_ IC50. In kind it is biochemical.
For another assay, the target named is T1, Human CARM1 (PRMT4) (Homo sapiens, UniProt Q86X55).
T1 construct: Flag-CARM1-His; made in house; host or cells: HEK 293F cells (BacMam baculovirus, pFastBacMam)
T1 sequence (Q86X55 2-585 isoform Q86X55-1): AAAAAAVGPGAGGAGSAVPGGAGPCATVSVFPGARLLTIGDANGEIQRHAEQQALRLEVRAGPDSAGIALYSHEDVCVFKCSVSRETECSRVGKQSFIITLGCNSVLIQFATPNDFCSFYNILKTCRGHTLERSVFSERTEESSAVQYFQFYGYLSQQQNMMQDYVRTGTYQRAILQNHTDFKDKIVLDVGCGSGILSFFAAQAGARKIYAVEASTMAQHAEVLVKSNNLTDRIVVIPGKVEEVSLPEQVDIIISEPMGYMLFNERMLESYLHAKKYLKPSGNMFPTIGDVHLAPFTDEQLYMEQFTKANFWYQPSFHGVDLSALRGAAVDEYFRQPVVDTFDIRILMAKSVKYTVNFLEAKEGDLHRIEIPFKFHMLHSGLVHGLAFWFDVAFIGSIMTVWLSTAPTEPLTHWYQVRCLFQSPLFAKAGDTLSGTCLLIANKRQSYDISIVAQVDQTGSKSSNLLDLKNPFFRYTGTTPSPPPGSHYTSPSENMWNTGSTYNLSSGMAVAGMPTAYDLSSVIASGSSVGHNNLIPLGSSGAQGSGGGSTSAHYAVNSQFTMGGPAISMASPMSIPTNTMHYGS
Description: CARM1 biochemical assay (3H-SAM Flashplate, peptide substrate). The settings on record: read-out: CARM1_ IC50. The gist of the method: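 FLAG/His-tagged human CARM1 (isoform 1, Δ539-561, baculovirus-expressed), 0.25 nM, preincubated 30 min at room temperature with compound (2% DMSO) in 20 mM Bicine pH 7.6, then reacted with 30 nM 3H-SAM and 250 nM biotinylated H3 16-30 peptide (R26 monomethyl). Stopped with 300 uM cold SAM; labelled peptide captured on streptavidin Flashplate; % inhibition versus DMSO and 1 mM SAH controls fitted to a 4- or 3-parameter curve.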

Assay [1] deals with asymmetric di-methyl PABP1 in RKO cells. Description: In Cell Western (ICW) for asymmetric di-methyl PABP1 and DNA content in RKO cells. Format: cell-based. The following applies: Homo sapiens, RKO. The gist of the method: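 RKO cells treated with compound for 48 h at 37 °C, then fixed, methanol-permeabilized and stained for asymmetric di-methyl PABP1 (800 nm) with DRAQ5 DNA stain (700 nm). Signal ratio normalized to DMSO and 20 μM reference-compound controls. IC50 from nine 3-fold dilutions in triplicate.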

Sequence of PRMT5 (O14744 whole entry, species assumed): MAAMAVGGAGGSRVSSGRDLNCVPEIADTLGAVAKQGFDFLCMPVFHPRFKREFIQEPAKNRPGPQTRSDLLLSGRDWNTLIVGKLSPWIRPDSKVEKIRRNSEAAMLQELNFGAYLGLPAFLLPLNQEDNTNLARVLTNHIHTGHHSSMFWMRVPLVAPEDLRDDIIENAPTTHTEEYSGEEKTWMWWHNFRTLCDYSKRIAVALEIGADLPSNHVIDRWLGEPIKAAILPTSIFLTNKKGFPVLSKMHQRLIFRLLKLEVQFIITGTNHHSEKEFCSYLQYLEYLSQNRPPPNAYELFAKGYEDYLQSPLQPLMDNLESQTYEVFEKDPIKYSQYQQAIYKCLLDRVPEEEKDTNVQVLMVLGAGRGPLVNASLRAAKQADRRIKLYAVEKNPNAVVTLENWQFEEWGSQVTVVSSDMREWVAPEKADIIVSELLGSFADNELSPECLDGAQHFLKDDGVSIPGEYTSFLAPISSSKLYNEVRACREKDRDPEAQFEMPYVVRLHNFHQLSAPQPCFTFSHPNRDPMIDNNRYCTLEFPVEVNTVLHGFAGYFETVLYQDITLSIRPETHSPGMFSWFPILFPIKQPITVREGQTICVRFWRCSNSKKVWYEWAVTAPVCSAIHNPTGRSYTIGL
Sequence of PRMT5 (Q9BQA1 whole entry partner, species assumed): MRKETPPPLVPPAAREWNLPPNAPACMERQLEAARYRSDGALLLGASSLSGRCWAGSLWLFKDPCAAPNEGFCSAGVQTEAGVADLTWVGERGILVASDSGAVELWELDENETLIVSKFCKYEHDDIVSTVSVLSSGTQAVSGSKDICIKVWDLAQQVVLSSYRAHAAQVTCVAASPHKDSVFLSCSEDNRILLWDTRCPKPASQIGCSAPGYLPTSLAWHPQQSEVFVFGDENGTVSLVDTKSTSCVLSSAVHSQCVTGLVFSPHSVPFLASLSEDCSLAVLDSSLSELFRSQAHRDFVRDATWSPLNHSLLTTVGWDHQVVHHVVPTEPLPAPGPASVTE

Turning to `NCCNCc1ccc(-c2ccc3cnn(Cc4cccc(C(=O)N5CCOCC5)c4)c3c2)cc1` [Compound 349], the IC50 at PRMT5 turned out to be 117 nM.
For the compound `N#Cc1ccc(Cn2cnc3ccc(-c4ccc(CNCCN)cc4)cc32)cc1` [Compound 344], the figures for the IC50 at PRMT5 and at Human CARM1 (PRMT4) were 67.6 nM and 8960 nM, respectively.
Consider `NCCNCc1ccc(-c2ccc3ncn(Cc4cccc(C(=O)NC5CCOCC5)c4)c3c2)cc1` [Compound 347], for which the IC50 on PRMT5 is 181 nM; on Human CARM1 (PRMT4) it was 10000 nM.
Turning to `CN(C)C(=O)c1cccc(Cn2cnc3ccc(-c4ccc(CNCCN)cc4)cc32)c1` [Compound 341], the IC50 at PRMT5 is 87.3 nM; on Human CARM1 (PRMT4), 6080 nM.
For `NCCNCc1ccc(-c2ccc3ncn(Cc4cccc(C(=O)N5CCCC5)c4)c3c2)cc1` [Compound 323], in that order: 127 nM and 756 nM.
For `CNCCN(C)Cc1cccc(-c2cc(C(=O)N(C)Cc3ccc(F)cc3)c3cnn(C(C)C)c3n2)c1` [Compound 278], in that order: 8730 nM and 110 nM.
For the compound `CC(C)(C)C(=O)Cn1cnc2cc(-c3ccc(CNCCN)cc3)ccc21` [Compound 354], the IC50 on PRMT5 was 452 nM.
`COc1ccc(Cn2ncc3ccc(-c4ccc(CNCCN)cc4)cc32)cc1` [Compound 339]: the IC50 on PRMT5 worked out at 135 nM; on Human CARM1 (PRMT4), 5680 nM.
`CC(C)n1ncc2c(C(=O)N(C)Cc3ccccc3F)cc(-c3cccc(CN(C)CCN)c3)nc21` [Compound 250]: the IC50 on PRMT5 is 816 nM; at Human CARM1 (PRMT4), 58.3 nM.
Take `CN1CCCC(Cn2cnc3ccc(-c4ccc(CNCCN)cc4)cc32)C1` (centres unmarked) [Compound 338]: the IC50 on PRMT5 was 439 nM; at Human CARM1 (PRMT4), 5530 nM.
For `CNCCN(C)Cc1cccc(-c2cc(C(=O)N(C)Cc3cccc(F)c3)c3cnn(C(C)C)c3n2)c1` [Compound 244], in that order: 2830 nM and 53.1 nM.
For `NCCNCc1ccc(-c2ccc3cnn(CC4CCNCC4)c3c2)cc1` [Compound 348] the same measures were 435 nM and 10000 nM.
On to `NCCNCc1ccc(-c2ccc3ncn(Cc4cccc(C(=O)NC5CCCCC5)c4)c3c2)cc1` [Compound 327], for which the IC50 was 72.8 nM at PRMT5 and 1600 nM on Human CARM1 (PRMT4).
For `CNCCN(C)Cc1cccc(-c2cc(C(=O)N[C@@H](C)c3ccccc3)c3cnn(Cc4ccccc4)c3n2)c1` [Compound 281] the same measures were 17400 nM and 128 nM.
For `NCCNCc1ccc(-c2ccc3ncn(CCc4cccc(Cl)c4)c3c2)cc1` [Compound 336], in that order: 66.5 nM and 5120 nM.
`CC(=O)N1CCC(Cn2cnc3ccc(-c4ccc(CNCCN)cc4)cc32)CC1` [Compound 352]: the IC50 at PRMT5 is 325 nM.
Take `CN(CCc1ccccn1)C(=O)c1cncc(-c2ccc(CNCCN)cc2)c1` [Compound 357]: on PRMT5, the half-inhibitory concentration (IC50) is 393 nM.
The same measure, in the same setting: for `NCCNCc1ccc(-c2ccc3cnn(C4CCNCC4)c3c2)cc1` [Compound 351] the value was 235 nM.
As to `CC(C)n1ncc2c(C(=O)NCc3cccnc3)cc(-c3cccc(CN(C)CCN)c3)nc21` [Compound 195], the results for the IC50 (at Human CARM1 (PRMT4); in assay [1] (In Cell Western)) were 13.9 nM and 1660 nM, respectively.
For `CNCCN(C)Cc1cccc(-c2cc(C(=O)NCc3ccc(F)cc3)c3cnn(C(C)C)c3n2)c1` [Compound 276] the same measures were 94.1 nM and 20000 nM.
`CC(C)n1ncc2c(C(=O)NCc3cncn3C)cc(-c3cccc(CN(C)CCN)c3)nc21` [Compound 185]: the figures for the IC50 (at Human CARM1 (PRMT4); in assay [1] (In Cell Western)) were 11.7 nM and 10800 nM, respectively.
As for `CCOC(=O)Nc1cc(-c2cccc(CN(C)CCN)c2)nc2c1cnn2C(C)C` [Compound 173], the results for the IC50 (at Human CARM1 (PRMT4); in assay [1] (In Cell Western)) were 5.93 nM and 3310 nM, respectively.
For `CC(C)n1ncc2c(C(=O)N3CCC(F)C3)cc(-c3cccc(CN(C)CCN)c3)nc21` (centres unmarked) [Compound 257], in that order: 63.5 nM and 10300 nM.
For `CN(CCN)Cc1cccc(-c2cc(C(=O)NC3CCOCC3)cc(N(C)CC3CC3)c2)c1` [Compound 217], in that order: 30 nM and 5690 nM.
For `CNCCN(C)Cc1cccc(-c2nc(NC3CCOCC3)c3cnn(C4CC4)c3n2)c1` [Compound 179] the same measures were 8.88 nM and 4870 nM.
As for `CNCCN(C)Cc1cccc(-c2cc(C(=O)N(C)C3CC3)c3cnn(C(C)C)c3n2)c1` [Compound 292], the figures for the IC50 (at Human CARM1 (PRMT4); in assay [1] (In Cell Western)) were 171 nM and 14000 nM, respectively.
For `CNCCN(C)Cc1cccc(-c2cc(C(=O)N[C@@H](C)c3ccccc3)c3cnn(Cc4ccncc4)c3n2)c1` [Compound 260], in that order: 68.2 nM and 20000 nM.
For `Cc1c(C(=O)NC2CCOCC2)cc(-c2cccc(CN(C)CCN)c2)cc1N(C)CC1CC1` [Compound 243] the same measures were 52 nM and 20000 nM.
For `CC(C)n1ncc2c(C(=O)NCc3cnc[nH]3)cc(-c3cccc(CN(C)CCN)c3)nc21` [Compound 206], in that order: 19.7 nM and 20000 nM.
Turning to `CC(C)n1ncc2c(C(=O)NC3CCOCC3)cc(-c3cccc(CN(C)CCNC4CC4)c3)nc21` [Compound 295], the IC50 was 181 nM on Human CARM1 (PRMT4) and 12400 nM in assay [1] (In Cell Western).
Consider `CC(C)n1ncc2c(C(=O)N3CCC3)cc(-c3cccc(CN(C)CCN)c3)nc21` [Compound 201], for which the IC50 at Human CARM1 (PRMT4) was found to be 18.2 nM; in assay [1] (In Cell Western), 3050 nM.
On to `CNCCN(C)Cc1cccc(-c2cc(C(=O)N3Cc4cccnc4C3)c3cnn(C(C)C)c3n2)c1` [Compound 301], for which the IC50 at Human CARM1 (PRMT4) was determined as 209 nM; in assay [1] (In Cell Western) it was 15500 nM.
For `CNCCN(C)Cc1cccc(-c2cc(C(O)c3ccncc3)c3cnn(C(C)C)c3n2)c1` (centres unmarked) [Compound 307], in that order: 250 nM and 20000 nM.
For `CC(C)n1ncc2c(NC(=O)NC3CCOCC3)cc(-c3cccc(CN(C)CCN)c3)nc21` [Compound 175], in that order: 6.94 nM and 11500 nM.
As to `CNCCN(C)Cc1cccc(-c2cc(C3=CCOCC3)c3cnn(C(C)C)c3n2)c1` [Compound 188], the IC50 at Human CARM1 (PRMT4) amounted to 12.3 nM; in assay [1] (In Cell Western) it was 8310 nM.
For `CNCCN(C)Cc1cccc(-c2cc(C(=O)NCc3cn4cccc(C)c4n3)c3cnn(C(C)C)c3n2)c1` [Compound 181] the same measures were 9.63 nM and 733 nM.
Take `CC(=O)N1CCC(Cn2ncc3ccc(-c4ccc(CNCCN)cc4)cc32)CC1` [Compound 353]: on PRMT5, the IC50 was 351 nM.
For the compound `CNCCN(C)Cc1cccc(-c2cc(C(=O)N3CCC3)c3cnn(C(C)C)c3n2)c1` [Compound 252], the IC50 on Human CARM1 (PRMT4) is 59.3 nM; in assay [1] (In Cell Western) it was 20000 nM.
As for `CCN(c1cc(-c2cccc(CN(C)CCNC)c2)cc(C(=O)NCc2c(C)cc(C)[nH]c2=O)c1C)C1CCOCC1` [Compound 387], the values for the IC50 (on Human CARM1 (PRMT4); in assay [1] (48 h)) were 97.2 nM and 10900 nM, respectively.
With `CNCCN(C)Cc1cccc(-c2cc(C(=O)N(C)Cc3cccnc3)c3cnn(C(C)C)c3n2)c1` [Compound 294], the IC50 at Human CARM1 (PRMT4) was found to be 177 nM; in assay [1] (In Cell Western), 4020 nM.
For `Cc1cc(C)c(CNC(=O)c2cc(-c3cc(CNCCN)ccc3C)cc3c2cnn3C(C)C)c(=O)[nH]1` [Compound 388], the IC50 is 149 nM on Human CARM1 (PRMT4) and not below 20000 nM in assay [1] (48 h).
For the compound `CN(CCN)Cc1cccc(-c2nc(NC3CCOCC3)c3cnn(C4CC4)c3n2)c1` [Compound 174], the IC50 at Human CARM1 (PRMT4) amounted to 6.11 nM; in assay [1] (In Cell Western), 5040 nM.
For `CNCCN(C)Cc1cccc(-c2cc(C(=O)N(C)CC3CCOCC3)c3cnn(C(C)C)c3n2)c1` [Compound 298] the same measures were 200 nM and 9620 nM.
For the compound `CNCCN(C)Cc1cccc(-c2cc(C(=O)NC3CCOC3)c3cnn(C(C)C)c3n2)c1` (centres unmarked) [Compound 234], the figures for the IC50 (at Human CARM1 (PRMT4); in assay [1] (In Cell Western)) were 43.3 nM and 2760 nM, respectively.
For `CNCCN(C)Cc1cccc(-c2cc(C(=O)NCc3cnc[nH]3)c3cnn(C(C)C)c3n2)c1` [Compound 231] the same measures were 42.2 nM and 20000 nM.
Regarding `NCCNCc1ccc(-c2ccc3cnn(Cc4ccncc4)c3c2)cc1` [Compound 350], the IC50 on PRMT5 came out at 172 nM.
For `CC(C)n1ncc2c(C(=O)N(C)Cc3ccccc3)cc(-c3cccc(CNCCN)c3)nc21` [Compound 238], the values for the IC50 (at Human CARM1 (PRMT4); in assay [1] (In Cell Western)) were 48.1 nM and 20000 nM, respectively.
In the case of `CNCCN(C)Cc1cccc(-c2cc(C(=O)NC3CCOCC3)c3cnn(C)c3n2)c1` [Compound 284], the figures for the IC50 (on Human CARM1 (PRMT4); in assay [1] (In Cell Western)) were 137 nM and 20000 nM, respectively.

In general, IC50 refers to the point on the concentration scale where inhibition reaches its midpoint.
